Drawing on patent US20110282078A1, “CYCLOHEXENE 1,4 -CARBOXYLATES” (Draths Corporation, priority 2009, published 2011), this text covers solubility for three compounds.

The nature of this data set: approximate solubility at room temperature in ethyl acetate. In kind it is physicochemical. The settings on record: organic solvent or mixture. As to the method: A stirred suspension of dried (less than 5 weight percent of water), crude cis,cis or cis,trans muconic acid (200 g) in tetrahydrofuran (THF) (1.8 liter (l)) is heated to 50° C., Within 45 minutes at 50° C. most of the solid dissolves. Activated charcoal (35 g) is added. After 1 hour, the hot suspension is clarified by filtration through a bed of Celite™ diatomaceous earth. The filtrate is evaporated to dryness and the residue is dried under high vacuum to yield pure cis,cis or cis,trans muconic acid (166 g, 83 percent mass recovery). In the case of cis,cis muconic acid, any traces of cis,trans muconic acid can be removed by resuspending the solid twice in refluxing ethyl acetate, which is removed each time by decantation from the cooled solution. The approximate solubilities at room temperature in ethyl acetate are 1 mg/ml for cis,cis muconic acid, 5 mg/ml for cis,trans muconic acid, and 0.1 mg/ml for trans,trans muconic acid.

≈ marks a conversion by molar mass, not a printed value.

With `O=C(O)/C=C\C=C\C(=O)O` [cis,trans muconic acid], the solubility (in general, the dissolved amount per volume that the medium holds) was about 5 mg/mL (≈ 35.2 mM).

In the case of `O=C(O)/C=C/C=C/C(=O)O` [trans,trans muconic acid], the solubility is about 0.1 mg/mL (≈ 0.704 mM).

Consider `O=C(O)/C=C\C=C/C(=O)O` [cis,cis muconic acid], for which the solubility is about 1 mg/mL (≈ 7.04 mM).
